Laboratory results published in patent US8957078B2, “Compounds useful as inhibitors of ATR kinase” (Vertex Pharmaceuticals Incorporated, priority 2013, dated 2015).

Assays:
[1] = biological target: T1, ATR kinase (full-length ATR) (Homo sapiens, UniProt Q13535); test: ATR Inhibition Assay (radioactive-phosphate incorporation); type: biochemical; settings: Ki(app); 5 nM full-length ATR, 10 μM ATP, 800 μM target peptide, 25° C.
T1 construct: in the presence of 5 nM full-length ATR
Protocol: Compounds were screened for their ability to inhibit ATR kinase using a radioactive-phosphate incorporation assay. Assays were carried out in a mixture of 50 mM Tris/HCl (pH 7.5), 10 mM MgCl2 and 1 mM DTT. Final substrate concentrations were 10 μM [γ-33P]ATP (3 mCi 33P ATP/mmol ATP, Perkin Elmer) and 800 μM target peptide (ASELPASQPQPFSAKKK (SEQ. ID NO: 1)).
Assays were carried out at 25° C. in the presence of 5 nM full-length ATR. An assay stock buffer solution was prepared containing all of the reagents listed above, with the exception of ATP and the test compound of interest. 13.5 μL of the stock solution was placed in a 96 well plate followed by addition of 2 μL of DMSO stock containing serial dilutions of the test compound (typically starting from a final concentration of 15 μM with 3-fold serial dilutions) in duplicate (final DMSO concentration 7%). The plate was pre-incubated for 10 minutes at 25° C. and the reaction initiated by addition of 15 μL [γ-33P]ATP (final concentration 10 μM).
The reaction was stopped after […] by the addition of 30 μL 0.1M phosphoric acid containing 2 mM ATP. A multiscreen phosphocellulose filter 96-well plate (Millipore, Cat no. MAPHN0B50) was pretreated with 100 μL 0.2M phosphoric acid prior to the addition of 45 μL of the stopped assay mixture. The plate was washed with 5×200 μL 0.2M phosphoric acid. After drying, 100 μL Optiphase ‘SuperMix’ liquid scintillation cocktail (Perkin Elmer) was added to the well prior to scintillation counting (1450 Microbeta Liquid Scintillation Counter, Wallac).
After removing mean background values for all of the data points, Ki(app) data were calculated from non-linear regression analysis of the initial rate data using the Prism software package (GraphPad Prism version 3.0cx for Macintosh, GraphPad Software, San Diego Calif., USA).

[2] = tested on: HCT116 colorectal cancer cells; test: Cisplatin Sensitization Assay (96 h cell viability MTS); type: cell-based; settings: concentration of compound required to reduce the IC50 of Cisplatin alone by at least 3-fold; HCT116, 96 h MTS
Protocol: Compounds can be screened for their ability to sensitize HCT116 colorectal cancer cells to Cisplatin using a 96 h cell viability (MTS) assay. […] Compounds and Cisplatin are then both added simultaneously to the cell media in 2-fold serial dilutions from a top final concentration of 10 μM as a full matrix of concentrations in a final cell volume of 200 μl, and the cells are then incubated at 37° C. in 5% CO2. After 96 h, 40 μl of MTS reagent (Promega G358a) is added to each well and the cells are incubated for 1 h at 37° C. in 5% CO2. Finally, absorbance is measured at 490 nm using a SpectraMax Plus 384 reader (Molecular Devices) and the concentration of compound required to reduce the IC50 of Cisplatin alone by at least 3-fold (to 1 decimal place) can be reported.

T1 sequence (Q13535 whole entry): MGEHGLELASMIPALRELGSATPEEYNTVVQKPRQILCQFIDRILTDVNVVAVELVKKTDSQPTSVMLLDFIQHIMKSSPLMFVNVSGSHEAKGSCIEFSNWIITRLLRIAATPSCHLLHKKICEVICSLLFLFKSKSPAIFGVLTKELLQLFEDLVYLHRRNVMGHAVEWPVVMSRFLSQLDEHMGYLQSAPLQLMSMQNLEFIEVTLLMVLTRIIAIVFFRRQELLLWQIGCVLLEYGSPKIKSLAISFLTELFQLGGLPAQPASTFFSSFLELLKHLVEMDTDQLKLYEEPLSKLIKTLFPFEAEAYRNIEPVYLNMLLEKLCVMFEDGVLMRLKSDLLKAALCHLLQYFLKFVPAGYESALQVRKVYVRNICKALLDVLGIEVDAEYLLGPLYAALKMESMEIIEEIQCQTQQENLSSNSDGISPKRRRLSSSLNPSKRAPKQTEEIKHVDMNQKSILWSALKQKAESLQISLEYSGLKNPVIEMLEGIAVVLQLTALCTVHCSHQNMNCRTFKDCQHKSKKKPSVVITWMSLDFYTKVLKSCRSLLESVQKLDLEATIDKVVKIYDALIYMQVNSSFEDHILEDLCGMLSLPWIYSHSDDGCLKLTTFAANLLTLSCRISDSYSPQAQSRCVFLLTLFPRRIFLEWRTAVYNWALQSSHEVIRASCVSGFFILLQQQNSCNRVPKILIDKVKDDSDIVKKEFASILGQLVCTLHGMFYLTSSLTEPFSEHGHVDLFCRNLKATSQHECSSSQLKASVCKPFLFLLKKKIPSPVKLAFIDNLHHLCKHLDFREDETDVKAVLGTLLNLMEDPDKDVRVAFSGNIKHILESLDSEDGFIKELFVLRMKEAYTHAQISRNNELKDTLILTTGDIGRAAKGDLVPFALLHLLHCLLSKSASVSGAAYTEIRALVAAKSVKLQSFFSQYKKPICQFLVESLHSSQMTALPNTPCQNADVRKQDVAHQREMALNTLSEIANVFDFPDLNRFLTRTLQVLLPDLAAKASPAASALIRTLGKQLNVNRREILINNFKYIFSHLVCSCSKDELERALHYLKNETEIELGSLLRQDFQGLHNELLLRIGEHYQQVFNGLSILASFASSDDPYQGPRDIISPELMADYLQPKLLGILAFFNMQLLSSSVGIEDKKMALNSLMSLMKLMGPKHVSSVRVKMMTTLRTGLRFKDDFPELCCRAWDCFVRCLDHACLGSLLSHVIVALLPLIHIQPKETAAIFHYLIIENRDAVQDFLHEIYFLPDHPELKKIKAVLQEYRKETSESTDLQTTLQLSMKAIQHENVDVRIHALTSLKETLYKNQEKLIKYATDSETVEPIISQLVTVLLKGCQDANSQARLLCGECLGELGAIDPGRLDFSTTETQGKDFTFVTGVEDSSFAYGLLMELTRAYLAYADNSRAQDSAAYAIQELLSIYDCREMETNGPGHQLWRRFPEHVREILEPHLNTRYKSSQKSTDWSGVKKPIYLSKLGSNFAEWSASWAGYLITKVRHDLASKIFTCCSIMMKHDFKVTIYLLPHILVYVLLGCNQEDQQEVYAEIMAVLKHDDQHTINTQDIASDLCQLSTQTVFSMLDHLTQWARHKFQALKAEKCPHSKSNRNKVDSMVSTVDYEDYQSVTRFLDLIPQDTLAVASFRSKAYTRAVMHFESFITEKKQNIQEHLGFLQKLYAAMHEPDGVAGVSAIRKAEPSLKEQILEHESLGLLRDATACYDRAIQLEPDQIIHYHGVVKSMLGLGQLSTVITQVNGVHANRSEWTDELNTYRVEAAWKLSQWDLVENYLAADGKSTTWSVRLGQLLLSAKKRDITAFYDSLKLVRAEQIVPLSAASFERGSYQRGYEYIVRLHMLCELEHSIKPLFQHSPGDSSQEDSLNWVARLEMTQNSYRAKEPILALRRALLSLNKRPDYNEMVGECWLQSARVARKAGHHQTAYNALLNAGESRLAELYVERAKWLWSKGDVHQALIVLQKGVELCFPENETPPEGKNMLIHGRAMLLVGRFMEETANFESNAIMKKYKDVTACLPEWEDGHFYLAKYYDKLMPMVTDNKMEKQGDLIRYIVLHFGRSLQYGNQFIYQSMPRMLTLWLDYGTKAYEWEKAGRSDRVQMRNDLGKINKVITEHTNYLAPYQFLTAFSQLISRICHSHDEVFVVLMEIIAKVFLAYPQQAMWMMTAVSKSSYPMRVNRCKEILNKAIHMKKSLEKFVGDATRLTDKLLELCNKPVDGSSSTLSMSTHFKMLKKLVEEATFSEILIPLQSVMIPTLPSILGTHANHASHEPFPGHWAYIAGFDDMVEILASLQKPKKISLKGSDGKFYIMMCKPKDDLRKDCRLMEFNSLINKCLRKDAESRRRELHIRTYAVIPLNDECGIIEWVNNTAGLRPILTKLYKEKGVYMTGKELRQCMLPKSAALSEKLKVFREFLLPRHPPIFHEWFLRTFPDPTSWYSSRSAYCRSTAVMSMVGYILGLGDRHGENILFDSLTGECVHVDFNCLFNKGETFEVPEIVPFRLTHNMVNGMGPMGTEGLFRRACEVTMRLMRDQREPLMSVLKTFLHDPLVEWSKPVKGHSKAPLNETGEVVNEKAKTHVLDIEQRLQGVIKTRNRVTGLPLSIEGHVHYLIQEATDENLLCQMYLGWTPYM

| SMILES | Ki [1] | Cisplatin Sensitization Assay [2] |
| --- | --- | --- |
| CN1CCC[C@@H](Oc2ncncc2NC(=O)c2c(N)nn3cc(F)cnc23)C1 [I-A-1, (R)-2-amino-6-fluoro-N-(4-((1-methylpiperidin-3-yl)oxy)pyrimidin-5-yl)pyrazolo[1,5-a]pyrimidine-3-carboxamide] | 1000 to 5000 nM | + (Compounds with a Cisplatin sensitization value >0.2 μM but <5 μM are marked with “+.”) |
| Nc1nn2cc(F)cnc2c1C(=O)Nc1cncnc1O[C@H]1CN2CCC1CC2 [I-A-3, (R)-2-amino-6-fluoro-N-(4-(quinuclidin-3-yloxy)pyrimidin-5-yl)pyrazolo[1,5-a]pyrimidine-3-carboxamide] | 10 to 1000 nM | ++ (Compounds with a Cisplatin sensitization value >0.02 μM but <0.2 μM are marked with “++.”) |
| Nc1nn2cc(F)cnc2c1C(=O)Nc1cncnc1O[C@@H]1CN2CCC1CC2 [I-A-4, (S)-2-amino-6-fluoro-N-(4-(quinuclidin-3-yloxy)pyrimidin-5-yl)pyrazolo[1,5-a]pyrimidine-3-carboxamide] | 10 to 1000 nM | ++ (Compounds with a Cisplatin sensitization value >0.02 μM but <0.2 μM are marked with “++.”) |
| CN1CCC(Oc2ncncc2NC(=O)c2c(N)nn3cc(Cl)cnc23)CC1 [I-A-6, 2-amino-6-chloro-N-(4-((1-methylpiperidin-4-yl)oxy)pyrimidin-5-yl)pyrazolo[1,5-a]pyrimidine-3-carboxamide] | 1000 to 5000 nM | ++ (Compounds with a Cisplatin sensitization value >0.02 μM but <0.2 μM are marked with “++.”) |
| Nc1nn2cc(F)cnc2c1C(=O)Nc1cnncc1N1CCCC1 [I-B-16, 2-amino-6-fluoro-N-(5-(pyrrolidin-1-yl)pyridazin-4-yl)pyrazolo[1,5-a]pyrimidine-3-carboxamide] | 1000 to 5000 nM | – |
| CN1CCN(C2CCN(c3cnncc3NC(=O)c3c(N)nn4cc(F)cnc34)CC2)CC1 [I-B-24, 2-amino-6-fluoro-N-(5-(4-(4-methylpiperazin-1-yl)piperidin-1-yl)pyridazin-4-yl)pyrazolo[1,5-a]pyrimidine-3-carboxamide] | 10 to 1000 nM | – |
| COc1cnccc1NC(=O)c1c(N)nn2ccc(C(F)(F)F)nc12 [I-C-4, 2-amino-N-(3-methoxypyridin-4-yl)-5-(trifluoromethyl)pyrazolo[1,5-a]pyrimidine-3-carboxamide] | 10 to 1000 nM | – |

Continued, in another order:

| Ki [1] | SMILES | Cisplatin Sensitization Assay [2] |
| --- | --- | --- |
| 10 to 1000 nM | CN1CCC[C@H](Oc2ncncc2NC(=O)c2c(N)nn3cc(F)cnc23)C1 [I-A-2, (S)-2-amino-6-fluoro-N-(4-((1-methylpiperidin-3-yl)oxy)pyrimidin-5-yl)pyrazolo[1,5-a]pyrimidine-3-carboxamide] | + (Compounds with a Cisplatin sensitization value >0.2 μM but <5 μM are marked with “+.”) |
| 10 to 1000 nM | CN1CCC(Oc2ncncc2NC(=O)c2c(N)nn3cc(F)cnc23)CC1 [I-A-5, 2-amino-6-fluoro-N-(4-((1-methylpiperidin-4-yl)oxy)pyrimidin-5-yl)pyrazolo[1,5-a]pyrimidine-3-carboxamide] | ++ (Compounds with a Cisplatin sensitization value >0.02 μM but <0.2 μM are marked with “++.”) |
| 10 to 1000 nM | Nc1nn2cc(F)cnc2c1C(=O)Nc1cncnc1OC1CCN(C2COC2)CC1 [I-A-8, 2-amino-6-fluoro-N-(4-((1-(oxetan-3-yl)piperidin-4-yl)oxy)pyrimidin-5-yl)pyrazolo[1,5-a]pyrimidine-3-carboxamide] | +++ (Compounds with a Cisplatin sensitization value of <0.02 μM are marked with “+++.”) |
| 1000 to 5000 nM | Nc1nn2cc(Cl)cnc2c1C(=O)Nc1cncnc1OC1CCN(C2COC2)CC1 [I-A-9, 2-amino-6-chloro-N-(4-((1-(oxetan-3-yl)piperidin-4-yl)oxy)pyrimidin-5-yl)pyrazolo[1,5-a]pyrimidine-3-carboxamide] | + (Compounds with a Cisplatin sensitization value >0.2 μM but <5 μM are marked with “+.”) |
